In patent US20180008688A1, “METHOD AND COMPOSITIONS FOR ENHANCING IMMUNOTHERAPEUTIC TREATMENT OF A CANCER” (Augusta University Research Institute, Inc., priority 2016, published 2018):
“Also recorded” adds a separate entry of the source.

How the values were obtained:
T cells = test: Purified T cells activated with anti-CD3/CD28 with nutlin, IL-12, MG-132; format: cell-based, mouse
From the text: Regulation of p53 is complex, and it can be targeted by multiple pathways besides MDM2 (Chao C. C. (2015) Clin. Chim. Acta 438: 139-147). If IL-12 is rescuing T cells from nutlin, one possibility is that IL-12 might activate an alternative pathway of p53 degradation, not dependent on MDM2. To test this, purified T cells were activated (without any antigen-presenting cells or other cells) using anti-CD3/CD28 antibodies. T cells were activated in the presence or absence of nutlin with or without addition of recombinant IL-12.
Finally, to test the hypothesis that IL-12 targeted p53 for proteolytic degradation via an alternated pathway, proteasomal function was inhibited using MG-132. T cells were activated using immobilized CD3/CD28 as above. […] CFSE proliferation tracked inversely with p53 levels. […] While MG-132 affects many intracellular pathways besides p53, these findings support the basic hypothesis that IL-12 bypasses nutlin by targeting p53 for degradation via an alternative route.

E.G7 tumors = test: E.G7 (EL4-OVA) tumors in wild-type hosts treated with oxaliplatin with or without nutlin-3a; format: in vivo, mouse; conditions: for Ly6C+/CD103+ dendritic cells in tumors: nutlin added to oxaliplatin
Method: (§1) In vivo tumor studies: The B16F10 and E.G7 (EL4-OVA) cell lines were obtained from ATCC. B16-OVA (B16F10 transfected with full-length chicken ovalbumin) clone MO4 was according to Falo et al. ((1995) Nat. Med. 1: 649-653). B16F10 cells expressing EGFP protein (B16-GFP cells) were derived using lentiviral transfection. Tumor implantation was performed as described (Sharma et al., (2007) J. Clin. Invest. 117: 2570-2582), using 1×10^5 cells for B16F10 and 1×10^6 cells for other cell lines (large inocula were used to ensure rapid tumor engraftment and immune suppression). Tumors were implanted bilaterally in each mouse as a control for reproducible implantation technique; replicate tumor diameters in a single mouse were typically within ±15%. Tumor volume was calculated from orthogonal diameters using the formula V=L×W^2×π/6. Mice received approved euthanasia when tumors reached a size of 300 mm^2 (product of orthogonal diameters); death was never used a planned endpoint in any study.
(§2) Tumor implantation was performed as described (Sharma et al., (2007) J. Clin. Invest. 117: 2570-2582). VO-OHpic was given at 10 mg/kg/day i.p., in 10% DMSO/PBS. Cyclophosphamide was given at 150 mg/kg i.p×1 dose; and oxaliplatin at 5 mg/kg i.p×1 dose. Nutlin-3a was administered daily at 10 mg/kg/day i.p. For checkpoint blockade, mice received anti-CTLA-4 plus a cocktail of antibodies against the PD-1 pathway. Vaccines and T cell adoptive transfer studies were performed as described (Sharma et al., (2015) Sci. Advances. 1: e1500845).
VO-OHpic was given at 10 mg/kg/day i.p., in 10% DMSO/PBS. Cyclophosphamide was given at 150 mg/kg i.p×1 dose. Oxaliplatin was given at 5 mg/kg i.p×1 dose. Nutlin-3a was dissolved at 2 mg/ml in 10% DMSO in buffered saline and administered daily at 10 mg/kg/day i.p. The 10 mg/kg/day dose was at the lower end of the parenteral dosing range described for mice (Zhang et al., (2011) Drug Meta. Dispos. 39: 15-21). For checkpoint blockade, mice received anti-CTLA-4 (clone 9D9, BioXcell) plus a cocktail of antibodies against the PD-1 pathway: anti-PD-L2, clone TY25 (Yamazaki et al., (2002) J. Immunol. 169: 5538-5545); anti-PD-1, clone J43 (Agata et al., (1996) Int. Immunol. 8: 765-772); and anti-PD-L1, clone MIH7 (Tsushima et al., (2003) Eur. J. Immunol. 33: 2773-2782). A cocktail was used in order to block the PD-1 pathway as completely as possible and thus minimize any peculiarities of a single blocking antibody.

B16F10 tumors = test: Established B16F10 tumors treated with dual checkpoint blockade with or without nutlin-3a; format: in vivo, mouse
Method: as §1
as §2, with “Vaccines and T cell adoptive transfer studies were performed as described (Sharma et al., (2015) Sci. Advances. 1: e1500845).” left out

p53 = p53 expression in mononuclear cells of tumors after systemic nutlin-3a (FACS); format: in vivo, mouse; conditions: FIG. 7
Method: Antibody against the N-terminus of p53 (clone 1C12), used as in Watanabe et al., (2014) Immunity 40: 681-691, was from Cell Signaling Technology. Antibody against the C-terminus p53 (clone PAb122 (Gurney et al., (1980) J. Virol. 34: 752-763) was from Novus Biologicals. For both antibodies, staining was performed following permeablization with eBioscience fix-and-perm. Anti-phospho-p53(Ser15) (clone D4S1H) was from Cell Signaling Technology. For phospho-specific staining, cells were washed in PBS, fixed with 2% paraformaldehyde for 10 min at 37° C., pre-chilled for 1 min, then permeabilized by slow addition of ice-cold methanol to a final concentration of 90%. Cells were then incubated on ice for 30 min, washed with 1% FCS/PBS, blocked with the same solution for 10 min at room temperature, then for 1 h at room temperature and washed. Cells were acquired immediately after staining.
VO-OHpic was given at 10 mg/kg/day i.p., in 10% DMSO/PBS. Cyclophosphamide was given at 150 mg/kg i.p×1 dose. Oxaliplatin was given at 5 mg/kg i.p×1 dose. Nutlin-3a was dissolved at 2 mg/ml in 10% DMSO in buffered saline and administered daily at 10 mg/kg/day i.p. The 10 mg/kg/day dose was at the lower end of the parenteral dosing range described for mice (Zhang et al., (2011) Drug Meta. Dispos. 39: 15-21). […]

[1] = nutlin, anti-CD3/CD28 activation

Structure (SMILES): COc1ccc(C2=NC(c3ccc(Cl)cc3)C(c3ccc(Cl)cc3)N2C(=O)N2CCNC(=O)C2)c(OC(C)C)c1 (single isomer, unassigned; (-)) [nutlin-3a, (−)-4-(4,5-Bis(4-chlorophenyl)-2-(2-isopropoxy-4-methoxyphenyl)-4,5-dihydro-1H-imidazole-1-carbonyl)piperazin-2-one]
- T cell proliferation (T cells; [1]): suppressed proliferation of T cells
- p53 levels in activated T cells (T cells; [1]): progressively restored, and then markedly elevated
- p53 levels in activated T cells (T cells; nutlin, anti-CD3/CD28 activation, listed as Nutlin): blocked the down-regulation of p53
- effect of nutlin on p53-deficient T cells (T cells; p53-deficient T cells): no inhibitory effect
- Ly6C+/CD103+ dendritic cells in tumors (E.G7 tumors): sustained expression
- Ly6C+/CD103+ dendritic cells in tumors (E.G7 tumors; listed as nutlin): maintained long-term expression
- anti-tumor effect (E.G7 tumors; nutlin-3a added to one dose of oxaliplatin, FIG. 8C): markedly prolonged the anti-tumor effect; also recorded: significantly increased the intensity and duration of the anti-tumor effect
- IL-12 production (E.G7 tumors; nutlin-3a added to oxaliplatin): enhanced IL-12 production
- Ly6C+/CD103+ dendritic cells in tumors (B16F10 tumors; nutlin added to checkpoint blockade, after 2 weeks of treatment): maintained large numbers
- anti-tumor effect (B16F10 tumors; nutlin-3a 10 mg/kg/day i.p. added to dual checkpoint blockade, FIG. 8A): significantly enhanced and prolonged the effect of treatment
- effect on p53 in remaining tumor cells (negative for CD11c/Ly6c/Gr 1) (p53): little effect
- increase in p53 levels in CD11c+ cells and myeloid cells in tumors (p53; systemic nutlin-3a, including Ly6c+CD11c^NEG myeloid precursors): 2-3 fold
